Values quoted from earlier work as cited in patent US20080095831A1, “TOPICAL FORMULATION OF […] […] COMPOSITION FOR PERCUTANEOUS ABSORPTION OF […] ACTIVE AGENT” (priority 2006, published 2008).
Counter-ions that a name gives are not always drawn.

Structure (SMILES)	solubility in water (in words)	further results
CN(C)CCC=C1c2ccccc2CCc2ccccc21 [Amitriptline]	freely soluble	
O=[N+]([O-])O[C@H]1CO[C@H]2[C@@H]1OC[C@H]2O[N+](=O)[O-] [Isosorbide dinitrate]	sparingly soluble	
CC/C(=C(\c1ccccc1)c1ccc(OCCN(C)C)cc1)c1ccccc1 [Tamoxifen citrate]		collagen production (keloid cells): decrease; keloid fibroblast production (keloid cells): inhibit; effect on keloid cells (keloid cells; concentration of about 0.01%): deadly effect

More lines, main results first:

solubility in water (in words)	Structure (SMILES)	further results
water-soluble	CCCCC(C)(O)C/C=C/[C@H]1[C@H](O)CC(=O)[C@@H]1CCCCCCC(=O)OC (mixture of isomers) [Misoprostol]	
insoluble	CC(=O)[C@H]1CC[C@H]2[C@@H]3CCC4=CC(=O)CC[C@]4(C)[C@H]3CC[C@]12C [Progesterone]	
freely soluble	Clc1cccc(Cl)c1N=C1NCCN1 [clonidine hydrochloride]	
freely soluble	NC(=O)c1cccnc1 [nicotinamide]	
